This note sets out measurements from PubChem BioAssay AID1645848.

In brackets after ≈: the same amount, converted by molar mass.

The conditions of the data set: buffer; pH 7.4; 6.0 h; 150.0 µM.
Take `CC1(C)CCC(CN2CCN(c3ccc(C(=O)NS(=O)(=O)c4ccc(NCC5CCOCC5)c([N+](=O)[O-])c4)c(Oc4cnc5[nH]ccc5c4)c3)CC2)=C(c2ccc(Cl)cc2)C1`: the solubility (kinetic) was less than 1 µg/mL.

`Cc1sc(NC(=O)Cc2ccc3c(c2)OCO3)nc1-c1ccc2c(c1)CCN2` registered a solubility (kinetic) of less than 1 µg/mL. The value for `CNc1oc(-c2cccc3ccccc23)nc1C#N` was less than 1 µg/mL; that for `Cc1ccc(S(=O)(=O)Nc2nc3ccc(C)cc3nc2Nc2ccc3c(c2)OCO3)cc1` was greater than 66 µg/mL; that for `C=CC(=O)N1CCCN(c2cc(NCCC(=O)O)nc(-c3ccccn3)n2)CC1` was greater than 59 µg/mL.

`Cc1cccc(NCc2ccc(O)c3ncccc23)c1`: the kinetic solubility is less than 1 µg/mL. The value for `Cc1ccc(S(=O)(=O)Nc2cnccc2C(=O)Nc2nc(-c3cc4ccccc4o3)cs2)cc1` was 0.521 µg/mL (≈ 1.06 µM); that for `c1ccc(-c2ccc(CNc3nc(-c4ccccn4)nnc3-c3ccccc3)cc2)cc1` was less than 1 µg/mL; that for `Brc1ccc(-c2csc(N3CCOCC3)n2)cc1` was 1.12 µg/mL (≈ 3.44 µM). Under `CCS(=O)(=O)c1nc(-c2ccc(Cl)cc2)cc(C(F)(F)F)n1` stands 8.53 µg/mL (≈ 24.3 µM); under `C[C@@H]1Cc2c([nH]c3cc(Cl)c(F)cc23)[C@]2(N1)C(=O)Nc1ccc(Cl)cc12`, 13.3 µg/mL (≈ 34.1 µM). The value for `Nc1nc2c(s1)C(c1ccc(F)c(F)c1)CC(=O)N2` (configuration not stated) was greater than 42 µg/mL; that for `CCC(=O)N1CCN(c2ccc(-n3c(=O)ccc4cnc5ccc(-c6cnc7ccccc7c6)cc5c43)cc2C(F)(F)F)CC1` was less than 1 µg/mL. As to `COc1ccc(O)c(CNc2ccc(S(=O)(=O)Nc3nccs3)cc2)c1`, the kinetic solubility was greater than 58 µg/mL. The value for `Cc1cc(F)ccc1S(=O)(=O)Nc1cnccc1C(=O)Nc1nc(-c2ccccc2)cs1` was 34.6 µg/mL (≈ 73.9 µM).

Take `FC1(F)CCN(c2nc(-c3ccncc3)nc3ccccc23)CC1`: the kinetic solubility was less than 1 µg/mL. The value for `Cc1cccc(-c2noc([C@@H]3Cc4nc[nH]c4CN3)n2)c1` was 18.3 µg/mL (≈ 65 µM); that for `Cc1ccccc1N(C)C1CN([S+](=O)([O-])c2cccc(C(F)(F)F)c2)C1` was 1.42 µg/mL (≈ 3.7 µM); that for `COc1cccc(-c2nc(-c3cc4cc(OC)ccc4[nH]c3=O)no2)c1` was less than 1 µg/mL. Under `CCOc1ccc(CCNC(=O)c2ccc(Oc3ccccc3)cc2)cc1OCC` stands less than 1 µg/mL; under `Fc1cc(Nc2nc(-c3ccncc3)nc3ccccc23)ccc1OCC(F)(F)F`, less than 1 µg/mL; under `COc1cccc(CNc2ccc(S(=O)(=O)Nc3nccs3)cc2)c1`, 27.2 µg/mL (≈ 72.5 µM). Under `COc1ccc(-c2ccc(C(=O)NC3CC(c4cc(=O)[nH]c(N)n4)C3)o2)cc1` (configuration not stated) stands 30.4 µg/mL (≈ 79.9 µM). For `O=S(=O)(Nc1ccccc1)c1ccc(NCc2cccc(Cl)c2O)cc1`, the solubility (kinetic) stood at 2.64 µg/mL (≈ 6.8 µM). Under `CC1(C)CCC(c2ccc(Cl)cc2)=C(CN2CCN(c3ccc(C(=O)NS(=O)(=O)c4ccc(N[C@H](CCN5CCOCC5)CSc5ccccc5)c(S(=O)(=O)C(F)(F)F)c4)cc3)CC2)C1` stands less than 1 µg/mL; under `CCS(=O)(=O)N1CC(CC#N)(n2cc(-c3ncnc4[nH]ccc34)cn2)C1`, greater than 55 µg/mL; under `CCOc1ccc(CCNC(=O)c2cc3sccc3n2Cc2ccc(Cl)c(F)c2)cc1OCC`, less than 1 µg/mL. Under `CNCc1ccc(-c2cc(-c3nc(-c4ccc(S(=O)(=O)C(C)C)cc4)cnc3N)on2)cc1` stands 27.3 µg/mL (≈ 59 µM).

`CC1=C[C@@H](CNCc2cccnc2)[C@H](C(C)C)C[C@H]1Cc1nnc(-c2ccc([N+](=O)[O-])cc2)o1` yielded a kinetic solubility greater than 68 µg/mL.

In the case of `CSc1ccc(/C=C/c2nc3ccccc3n2S(=O)(=O)c2ccc(Br)cc2)cc1`, the solubility (kinetic) was 2.73 µg/mL (≈ 5.63 µM). Regarding `Clc1ccccc1-c1nc(NCc2ccc(-c3cccnc3)cc2)c2ccccc2n1`, the kinetic solubility was less than 1 µg/mL. Regarding `O=C(Nc1nnc(-c2ccco2)o1)c1ccc(Cl)cc1`, the solubility (kinetic) came to 28.2 µg/mL (≈ 97.3 µM).

`CC/C=C\C/C=C\C/C=C\C/C=C\C/C=C\C/C=C\CCC(=O)NCCO` had a kinetic solubility greater than 55 µg/mL. Under `NCC(=O)Nc1cccc(-c2nn3c(=O)cc(N4CCNCC4)nc3s2)c1` stands 43.2 µg/mL (≈ 112 µM); under `Cc1cnc(-c2ccccc2C(C)C)nc1NCC1CN(c2cccnc2)C1`, 36.3 µg/mL (≈ 97.2 µM); under `CCOc1ccccc1N1CC(c2nc3ccccc3n2CCOc2ccc(C(C)(C)C)cc2)CC1=O` (configuration not stated), less than 1 µg/mL. Under `Fc1cccc(F)c1Nc1nc(-c2ccncc2)nc2ccccc12` stands less than 1 µg/mL. The value for `c1cc(-c2cc(-c3ccncc3)c3cncn3c2)c2[nH]ccc2c1` was less than 1 µg/mL; that for `CC1(C)C[C@@H]2C[C@@](C)(CN2S(=O)(=O)c2ccc(C(=O)Nc3ccc(Cl)c(S(=O)(=O)N4CCOCC4)c3)cc2)C1` was less than 1 µg/mL; that for `CN(C)CCOc1ccc(/C(=C(/CCCl)c2ccccc2)c2ccccc2)cc1` was less than 1 µg/mL. The compound `O=C(NCC1CCN(Cc2cccc(Cl)c2)CC1)Nc1ccc(F)c(Cl)c1` came in with a kinetic solubility of 25.1 µg/mL (≈ 61.3 µM). Under `N#Cc1cccc(Nc2ncc(-c3cccc4ccccc34)o2)c1` stands less than 1 µg/mL; under `CCOc1ccc(CCNC(=O)c2cc3sccc3n2C(C)C)cc1OCC`, 1.62 µg/mL (≈ 4.05 µM). The value for `O=S(=O)(Nc1nccs1)c1ccc(NCc2cccc(O)c2)cc1` was greater than 53 µg/mL; that for `Cc1c(O)ccc2c1OC(C)(C)CC2` was 8.29 µg/mL (≈ 43.1 µM). Consider `CN(C)c1ccc(CN2CCNc3cc(Nc4ccccc4)ncc3C2)cc1`, for which the solubility (kinetic) is greater than 83 µg/mL. The compound `CN1CC=C(c2nc(Nc3ccc(F)c(F)c3)c3ccccc3n2)CC1` showed a kinetic solubility of 33.8 µg/mL (≈ 96 µM).

As for `CCOC(=O)c1c(NC(=O)CN2CCCCC2)sc2c1CCN(C(=O)OCC)C2`, the solubility (kinetic) is 27.6 µg/mL (≈ 65.2 µM). Under `Fc1ccc(Nc2nc(-c3ccccc3)cc(-c3ccncc3)n2)cc1F` stands less than 1 µg/mL; under `CC[C@@]1(O)C(=O)OCc2c1cc1n(c2=O)Cc2c-1nc1cc(F)c(C)c3c1c2[C@@H](N)CC3`, 31.9 µg/mL (≈ 73.3 µM). Compound `COc1ccccc1CNS(=O)(=O)c1ccc(-c2cnc(C3CC3)o2)cc1` came in with a solubility (kinetic) of 2.61 µg/mL (≈ 6.79 µM). Under `Cc1ccc(NC(=O)c2c(N3CCCC3=O)c3cc(C)ccc3n2C)c(C)c1` stands less than 1 µg/mL; under `c1ccc(-c2csc3ncnc(Sc4nnn(-c5ccccc5)n4)c23)cc1`, less than 1 µg/mL. The value for `COC(=O)c1ccc([C@H]2c3[nH]c4ccccc4c3C[C@H](C(=O)OC)N2C(=O)CCl)cc1` was less than 1 µg/mL; that for `Fc1ccc(N2CCCN(CC3[C@H]4CNC[C@@H]34)CC2)cc1` (some centres not stated) was greater than 43 µg/mL. The value for `CN1C(=O)C(=O)N2C(=C[C@]3(c4c[nH]c5ccccc45)c4ccccc4N[C@H]23)C1=O` was less than 1 µg/mL; that for `CNC(=O)c1ccc(C)c(-n2c(C)cc(OCc3ccc(F)cc3F)c(Br)c2=O)c1` was greater than 100 µg/mL. Consider `CC(C)(C)C(=O)C(Oc1ccc(Cl)cc1)n1ccnc1` (configuration not stated), for which the kinetic solubility was determined as 29 µg/mL (≈ 99.1 µM). In the case of `O=C(NCCc1ccccn1)C1CC(=O)N(c2n[nH]c3cc(Br)ccc23)C1` (configuration not stated), the kinetic solubility was 5.42 µg/mL (≈ 12.7 µM).

As for `O=C1Nc2ccc(I)cc2/C1=C/c1cc(Br)c(O)c(Br)c1`, the kinetic solubility was less than 1 µg/mL.

Regarding `Cc1c(C(=O)OCCOc2ccccc2)[nH]c2c1C(=O)CC(c1ccccc1)C2` (configuration not stated), the solubility (kinetic) is less than 1 µg/mL. With `Cc1c(-c2cccc(NC(=O)c3ccc(F)c(F)c3)c2)nc2ncccn12`, the kinetic solubility turned out to be 7.47 µg/mL (≈ 20.5 µM).
